Experimental data taken from PubChem BioAssay (NCI).
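Abbreviation: GI50, concentration required for 50% inhibition of growth. At the TGI there is no net growth.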

How the values were obtained:
Experiment in all cases: NCI-60 cell line screen, 384-well format
[1] = system: MDA-MB-468 breast
[2] = system: SF-268 CNS
[3] = system: LOX IMVI melanoma
[4] = system: 786-0 renal
[5] = system: NCI/ADR-RES ovarian
[6] = system: SN12C renal
[7] = system: NCI-H322M lung
[8] = system: T-47D breast
[9] = system: HOP-62 NSCLC
[10] = system: CAKI-1 renal
[11] = system: HCT-15 colon
[12] = system: SK-OV-3 ovarian
[13] = system: K-562 leukemia
[14] = system: OVCAR-4 ovarian
[15] = system: OVCAR-8 ovarian
[16] = system: NCI-H23 lung
[17] = system: SNB-19 CNS
[18] = system: RPMI-8226 leukemia
[19] = system: M14 melanoma
[20] = system: HS 578T breast
[21] = system: TK-10 renal
[22] = system: HOP-92 NSCLC
[23] = system: MOLT-4 leukemia
[24] = system: CCRF-CEM leukemia
[25] = system: UACC-257 melanoma
[26] = system: KM12 colon
[27] = system: UO-31 renal
[28] = system: HCC-2998 colon
[29] = system: IGROV1 ovarian
[30] = system: UACC-62 melanoma
[31] = system: A498 renal
[32] = system: MALME-3M melanoma
[33] = system: DU-145 prostate
[34] = system: OVCAR-3 ovarian
[35] = system: SNB-75 CNS
[36] = system: SK-MEL-28 melanoma
[37] = system: OVCAR-5 ovarian
[38] = system: RXF 393 renal
[39] = system: HL-60(TB) leukemia
[40] = system: ACHN renal
[41] = system: SR leukemia
[42] = system: NCI-H522 lung
[43] = system: NCI-H460 NSCLC
[44] = system: MDA-MB-435 melanoma
[45] = system: MCF7 breast
[46] = system: BT-549 breast
[47] = system: SK-MEL-5 melanoma
[48] = system: MDA-MB-231 breast
[49] = system: SW-620 colon
[50] = system: SF-295 CNS
[51] = system: SF-539 CNS
[52] = system: HT29 colon
[53] = system: COLO 205 colon
[54] = system: EKVX NSCLC
[55] = system: PC-3 prostate
[56] = system: NCI-H226 lung
[57] = system: A549 NSCLC

## COc1cc2c(Oc3ccc4[nH]c(C)cc4c3F)ccnc2cc1OCC1(N)CC1
[1]
  GI50: 253 nM
  TGI: 567 nM
[2]
  GI50: 683 nM
  TGI: 2070 nM
[3]
  GI50: 705 nM
  TGI: 1990 nM
[4]
  GI50: 465 nM
  TGI: 1630 nM
[5]
  GI50: 936 nM
  TGI: 2210 nM
[6]
  GI50: 1120 nM
  TGI: 2860 nM
[7]
  GI50: 1440 nM
  TGI: 3420 nM
[8]
  GI50: 1600 nM
  TGI: 5360 nM
[9]
  GI50: 664 nM
  TGI: 2060 nM
[10]
  GI50: 881 nM
  TGI: 2310 nM
[11]
  GI50: 493 nM
  TGI: 1760 nM
[12]
  GI50: 539 nM
  TGI: 1920 nM
[13]
  GI50: 421 nM
  TGI: 1390 nM
[14]
  GI50: 543 nM
  TGI: 3180 nM
[15]
  GI50: 1510 nM
  TGI: 3270 nM
[16]
  GI50: 1030 nM
  TGI: 2520 nM
[17]
  GI50: 821 nM
  TGI: 2970 nM
[18]
  GI50: 753 nM
  TGI: 1990 nM
[19]
  GI50: 519 nM
  TGI: 1660 nM
[20]
  GI50: 294 nM
  TGI: 1040 nM
[21]
  GI50: 1600 nM
  TGI: 3320 nM
[22]
  GI50: 477 nM
  TGI: 1900 nM
[23]
  GI50: 223 nM
  TGI: 419 nM
[24]
  GI50: 722 nM
  TGI: 1880 nM
[25]
  GI50: 427 nM
  TGI: 1290 nM
[26]
  GI50: 474 nM
  TGI: 1740 nM
[27]
  GI50: 1300 nM
  TGI: 2760 nM
[28]
  GI50: 1370 nM
  TGI: 2850 nM
[29]
  GI50: 1200 nM
  TGI: 4350 nM
[30]
  GI50: 396 nM
  TGI: 1410 nM
[31]
  GI50: 400 nM
  TGI: 1690 nM
[32]
  GI50: 375 nM
  TGI: 1460 nM
[33]
  GI50: 2160 nM
  TGI: 7360 nM
[34]
  GI50: 278 nM
  TGI: 797 nM
[35]
  GI50: 314 nM
  TGI: 1070 nM
[36]
  GI50: 828 nM
  TGI: 2080 nM
[37]
  GI50: 1920 nM
  TGI: 3870 nM
[38]
  GI50: 648 nM
  TGI: 2090 nM
[39]
  GI50: 240 nM
  TGI: 463 nM
[40]
  GI50: 1160 nM
  TGI: 3440 nM
[41]
  GI50: 182 nM
  TGI: 350 nM
[42]
  GI50: 274 nM
  TGI: 672 nM
[43]
  GI50: 714 nM
  TGI: 2030 nM
[44]
  GI50: 228 nM
  TGI: 497 nM
[45]
  GI50: 359 nM
  TGI: 7730 nM
[46]
  GI50: 383 nM
  TGI: 1190 nM
[47]
  GI50: 416 nM
  TGI: 1320 nM
[48]
  GI50: 1170 nM
  TGI: 3540 nM
[49]
  GI50: 541 nM
  TGI: 1950 nM
[50]
  GI50: 346 nM
  TGI: 1250 nM
[51]
  GI50: 270 nM
  TGI: 1140 nM
[52]
  GI50: 364 nM
  TGI: 1450 nM
[53]
  GI50: 1300 nM
  TGI: 3010 nM
[54]
  GI50: 867 nM
  TGI: 2850 nM
[55]
  GI50: 809 nM
  TGI: 2290 nM
[56]
  GI50: 1110 nM
  TGI: 3020 nM
[57]
  GI50: 1080 nM
  TGI: 3150 nM
